{"source": "patent US9301962B2", "about": "“Male contraceptive compositions and methods of use” (Baylor College of Medicine, priority 2010, dated 2016)", "key": {"[1]": {"tested_on": "C57BL6/J/129S5 hybrid male mice", "assay": "Mouse study: testes size and histology after daily i.p. JQ1", "procedure": "(§1) The subsequent mixture was injected intraperitoneal into male mice at 1% of the body weight of the mouse (final amount is 50 mg/kg/day). The control was DMSO dissolved 1:10 in (2-Hydroxypropyl)-β-cyclodextrin and injected similarly. […] These studies were approved by the Administrative Committee on Laboratory Animal Care at Baylor College of Medicine, and all experiments were conducted in accordance with the NIH guide for the Care and Use of Laboratory Animals."}, "[2]": {"tested_on": "C57BL6/J/129S5 hybrid male mice", "assay": "Male fertility, fertilization and embryo developmental potential", "procedure": "Oocytes from these females were collected from their oviductal ampulla and cultured for 2 days to determine their developmental potential post-mating (FIG. 6B).\nas §1"}, "BRDT(1)": {"biological_target": "BRDT(1) (Homo sapiens, UniProt Q58F21)", "details": "alpha-screen, H4Kac4 competition", "protocol": "The N-terminal domain of human BRDT was cloned, expressed in E-Coli and purified as previously described (Filippakopoulos et al.).\nAssays were performed with minor modifications from the manufacturer's protocol (PerkinElmer, USA). All reagents were diluted in 50 mM HEPES, 150 mM NaCl, 0.1% w/v BSA, 0.01% w/v Tween20, pH 7.5 and allowed to equilibrate to room temperature prior to addition to plates. After addition of Alpha beads to master solutions all subsequent steps were performed in low light conditions. […] Addition to wells was performed with either a multichannel pipet (for optimization experiments) or a Biotek EL406 liquid handler. After a 1 minute 1000 rpm spin-down, 100 nl of compounds from stock plates were added by pin transfer using a Janus Workstation (PerkinElmer, USA). The streptavidin-coated donor beads (25 μg/ml final) were added as with previous solution in a 2×, 10 μl volume. Following this addition, the plates were sealed with foil to block light exposure and to prevent evaporation. The plates were spun down again at 1000 rpm for 1 minute."}}, "data": [{"smiles": "Cc1sc2c(c1C)C(c1ccc(Cl)cc1)=NC(CC(=O)OC(C)(C)C)c1nnc(C)n1-2", "note": "(racemic) [JQ1, tert-Butyl 2-(4-(4-chlorophenyl)-2,3,9-trimethyl-6H-thieno[3,2-f][1,2,4]triazolo[4,3-a][1,4]diazepin-6-yl)acetate]", "values": [{"measurement": "Leydig cells of the testes, histology", "setting": "[1]; 50 mg/kg/day i.p.", "result": "histologically normal"}, {"measurement": "gross testes size compared to control males", "setting": "[1]; 50 mg/kg/day i.p.", "result": "grossly smaller testes"}, {"measurement": "testosterone-responsive seminal vesicles, gross appearance", "setting": "[1]; 50 mg/kg/day i.p.", "result": "grossly normal"}, {"measurement": "testis histology", "setting": "[1]; 50 mg/kg/day i.p., 6 weeks treatment", "result": "seminiferous tubule degeneration"}, {"measurement": "number of spermatids positive for transition protein 1 (TNP1)", "setting": "[1]; immunohistochemistry of testes", "result": "reduced"}, {"measurement": "crossing of the blood:testis boundary", "setting": "[1]; inferred from effect on seminiferous tubule compartment", "result": "capable of effectively crossing the blood:testis boundary"}, {"measurement": "mating behavior (copulation plugs)", "setting": "[2]; after 5 weeks of treatment, superovulated females", "result": "did not alter mating behavior"}, {"measurement": "effect on impregnation of females", "setting": "[2]; males treated 3 weeks, housed with 2 females each, 3 more weeks of treatment, n=3", "result": "contraceptive effect"}, {"measurement": "treated adult male mice that sired two litters after cessation", "setting": "[2]; within the first month following cessation of JQ1", "result": "6 of 6"}]}, {"smiles": "Cc1sc2c(c1C)C(c1ccc(Cl)cc1)=N[C@H](CC(=O)OC(C)(C)C)c1nnc(C)n1-2", "note": "(racemic) [(−)-JQ1]", "values": [{"measurement": "activity for BRDT(1)", "setting": "BRDT(1)", "result": "inactive"}]}]}
